Experiments:
[1] = tested on: naive CD4+ T cells extracted from lymph nodes of the mouse; assay: Th17 cell differentiation inhibition (CD4+IL-17+ T cell population); type: cell-based; details: IL-6 20 ng/ml and TGF-beta 5 ng/ml with TCR activation; peptide 10 ng/ml to 1000 ng/ml; 3 days; induced group 3.14%, non-induced 1.2%
Description: In order to confirm the efficacy of the synthetic peptides prepared in Example 1 to inhibit Th17 cell differentiation, naive CD4^+ T cells extracted from lymph nodes of the mouse were treated with IL-6 20 ng/ml and TGF-beta 5 ng/ml together with TCR activation to induce differentiation into Th17 cells.
At the same time, three peptides Pep2, Pep3, and Pep4 disclosed in Table 2 of Test Example 1 were treated at a concentration of 10 ng/ml to 1000 ng/ml, respectively. Then, after incubation for 3 days, CD4+IL-17+ T cell population was analyzed.

[2] = tested on: collagen-induced arthritis (CIA) mouse model; assay: Rheumatoid arthritis treatment effect in collagen-induced arthritis (CIA) mouse model; type: in vivo, DBA/1J mouse; details: CIA mice, intraperitoneally 3 times a week after second immunization; similar efficacy compared to positive control MTX
Description: In order to confirm a rheumatoid arthritis improvement effect of the peptides prepared in Example 1, a rheumatoid arthritis mouse model was prepared with reference to a known literature (Nat Protoc. 2007; 2 (5):
Specifically, a CIA mouse model is a mouse model most commonly used in a rheumatoid arthritis animal test as an autoimmune disease arthritis model having characteristics similar to human rheumatoid arthritis. In the CIA mouse model, bovine type II collagen (Chondrex, USA) was mixed and emulsified with a Freund's complete adjuvant (Chondrex, USA) at 1:1, and then first immunization was performed by injecting 50 μl of the emulsified collagen solution intradermally into a 6-week-old DBA/1J mouse tail. On 2 weeks after the first immunization, bovine type II collagen was mixed and emulsified with a Freund's incomplete adjuvant (Chondrex, USA) at 1:1, and then second immunization (boosting) was performed by injecting 50 μl of the emulsified collagen solution induced) intradermally into the mouse tail. After the second immunization, each peptide was intraperitoneally administered 3 times a week from the following day to observe a therapeutic effect of the peptides for rheumatoid arthritis.
In order to examine the progression of rheumatoid arthritis according to the peptide treatment of the present invention, the severity of rheumatoid arthritis over time was evaluated and measured by a rheumatoid arthritis progress index.
At this time, the arthritis progress index was evaluated as Points 0 to 4 per leg in accordance with the arthritis progress evaluation criteria by Rossoliniec, etc. in Table 2 below and shown to total Points 0 to 16 (sum of four legs). Thereafter, an average value of the results evaluated by the two observers was calculated to quantify the severity of arthritis.

Substance: SSPSSP (Pep2)
- ratio of Th17 cells (CD4+IL-17+ T cell population) [1]: reduced similarly to the group that did not induce differentiation
- arthritis improvement (arthritis progress index, total Points 0 to 16) [2]: efficacy of arthritis improvement was shown

Substance: PTPPTP (Pep3)
- ratio of Th17 cells (CD4+IL-17+ T cell population) [1]: reduced similarly to the group that did not induce differentiation

Substance: PSSPSS (Pep1)
- arthritis improvement (arthritis progress index, total Points 0 to 16) [2]: efficacy of arthritis improvement was shown

Substance: PTSPTS (Pep4)
- ratio of Th17 cells (CD4+IL-17+ T cell population) [1]: reduced similarly to the group that did not induce differentiation
- arthritis improvement (arthritis progress index, total Points 0 to 16) [2]: efficacy of arthritis improvement was shown

Substance: STSSTS (Pep6)
- arthritis improvement (arthritis progress index, total Points 0 to 16) [2]: efficacy of arthritis improvement was shown

Reference: patent US11629169B2, “Use of peptides as therapeutic agent for autoimmune diseases and bone diseases” (KINE SCIENCES CO., LTD., priority 2017, dated 2023)
